The structures appear in SMILES notation. Read-outs that look alike come from different tables or passages of the source. Peptide text beside a SMILES is read from it.

The text below walks through data of publication PMC12596500, “Affinity-selected peptide ligands specifically bind i-motif DNA and modulate c-Myc gene expression” (Nucleic Acids Research, 2025).

In series [1] the test system is c-MycC52. The note with it: 10 µM DNA; for TM c-MycC52, first (lower) transition / TM c-MycC52, second (higher) transition: 10 mM NaCaco pH 6.6, 10 molar eqv. peptide, mean ± SEM (n=4); for ΔTM c-MycC52, transition at lower temperatures / ΔTM c-MycC52, second transition at higher temperatures: 10 mM sodium cacodylate pH 6.6, 10 molar equivalents peptide vs DMSO, mean ± SEM (n = 4). How it is done: (§1) Circular Dichroism (CD) melting experiments were performed in a Jasco J-1500 spectropolarimeter with 10 µM DNA samples in 10 mM sodium cacodylate buffer at pH 6.6 using a 1 mm path length quartz cuvette. […] The samples were kept at 5°C for 5 min before starting the melt, with a temperature increase of 1°C/min, a 0.5°C data interval, and a 60-s holding time at each target temperature. Four scans were accumulated data pitch of 0.5 nm, a scanning speed of 200 nm/min, 1 s response time, 2 nm bandwidth, and 200 mdeg sensitivity. Furthermore, two CD melting experiment repeats were performed recording C-rich c-Myc at 288 and 320 nm, G-rich c-Myc at 264 and 320 nm, and dsDNA at 253 and 320 nm with the settings as described for full spectrum measurements. Data were zero corrected to 320 nm and baseline drift. The melting temperature (TM) was concluded using the Boltzmann or biphasic fitting curve on the folded fraction data using GraphPad Prism version 10.1.2. Data were processed as mean ± SEM (n = 4) and one-way ANOVA followed by Bonferroni post-hoc test to determine significant changes between peptides and controls.

Another series relates to c-MycG52. The note with it: 10 µM DNA; for TM c-MycG52: 10 mM NaCaco pH 6.6, 10 molar eqv. peptide, mean ± SEM (n=4); for ΔTM c-MycG52: 10 mM sodium cacodylate pH 6.6, 10 molar equivalents peptide vs DMSO, mean ± SEM (n = 4). How it is done:
as §1

A further series deals with c-MycG27. The series is described as follows: CD melting of c-MycG27. The format is binding. The note with it: 10 µM DNA; for TM c-MycG27: 10 mM NaCaco pH 6.6, 10 molar eqv. peptide, mean ± SEM (n=4); for effect on c-MycG27 thermal stability, in words: pH 6.6, 10 molar equivalents peptide. How it is done:
as §1

The subject of a further series is c-MycC27. The series is described as follows: CD melting of c-MycC27. It is filed as binding. The note with it: 10 µM DNA; for TM c-MycC27, first (lower) transition / TM c-MycC27, second (higher) transition: 10 mM NaCaco pH 6.6, 10 molar eqv. peptide, mean ± SEM (n=4); for effect on c-MycC27 thermal stability, in words: pH 6.6, 10 molar equivalents peptide. The method, then: as §1

In series [2] the test system is c-MycC52. The series is described as follows: 1H NMR of c-MycC52 with peptide. The format is binding. The note with it: 50 µM c-MycC52, one equivalent of peptide, 10 mM sodium cacodylate pH 6.6, 10% D2O, 283 K, 600 MHz. The method, then: (§2) NMR: ^1H NMR spectra of c-MycC52 were recorded at 283 K using a Bruker Avance NEO 600 MHz spectrometer equipped with QCI-F cryoprobe operating Topspin 4.5.0. Spectra were recorded with excitation sculpting, at 27.75 ppm spectral width, 1 s acquisition time, and 1 s recycle delay. Spectra of the imino proton region were acquired with a 1D SOFAST excitation scheme with a 1293 μs Pc9_4_120 excitation pulse and 720 μs Reburp refocusing pulse, centred at 13 ppm, a 29.75 ppm spectral width, 115 ms acquisition time, and 100 ms recycle delay. Samples were annealed at a final concentration of 50 µM in 10 mM sodium cacodylate (pH 6.6). 10% D2O and 0.01% sodium trimethylsilylpropanesulfonate (DSS) were added immediately before recording NMR spectra experiments. Spectra were processed with exponential line broadening and referenced to the Sodium trimethylsilylpropanesulfonate (DSS) chemical shift. The chemical shift of the cacodylate buffer resonance was used to monitor potential pH changes between samples.
(§3) Given the selectivity of the Pep-PTN and Pep-VSE peptides for the c-Myc iM structure, both in the binding experiments and also the in vitro gene assays, we considered potential binding modes. We recorded NMR spectra of the c-MycC52 oligonucleotide in the presence and absence of Pep-VSE to give insights into potential binding sites (Supplementary Figs S17–S20). […]

Series [3] can be described thus: Solubility and aggregation state seen by NMR. It is filed as physicochemical. Particulars: one equivalent of peptide to 50 µM c-MycC52, 10 mM sodium cacodylate pH 6.6, 10% D2O, 283 K, read-out 1H NMR. How it is done: as §2, §3
The mark [4] stands for this setting: 10 mM sodium cacodylate pH 6.6, 10 molar equivalents peptide vs DMSO, mean ± SEM (n = 4), SEM.

On to `CC(=O)N1CCC[C@H]1C(=O)N[C@H](C(=O)N[C@@H](CC(N)=O)C(=O)N[C@H](C(=O)N[C@@H](CO)C(=O)NCC(=O)N[C@@H](CCCNC(=N)N)C(=O)N[C@@H](CC(N)=O)C(=O)N[C@@H](Cc1ccc(O)cc1)C(=O)N[C@@H](CC(C)C)C(=O)N[C@@H](Cc1ccccc1)C(=O)N[C@@H](CS)C(N)=O)C(C)C)[C@@H](C)O` [Pep-PTN] (Ac-PTNVSGRNYLFC-NH2), for which, in the series on c-MycC52 [1] (SEM), the “TM c-MycC52, first (lower) transition” value amounted to 32 ± 2.0 °C; the “TM c-MycC52, second (higher) transition” value is 79 ± 0.8 °C; the “ΔTM c-MycC52, second transition at higher temperatures” value was −2 ± 0.3 °C; the “ΔTM c-MycC52, transition at lower temperatures” value was −1 ± 0.5 °C. In addition, the “ΔTM c-MycC52, transition at lower temperatures” value in the series on c-MycC52 [1] was “no significant change”. For the same molecule, the “decrease in TM of the more stable iM population of c-MycC52” value with c-MycC52 [1] (pH 6.6, 10 molar equivalents peptide, given as a decrease, without sign) amounted to 2 ± 0.3 °C. In addition, in the series with c-MycG52, the “TM c-MycG52” value was determined as 45 ± 1.0 °C and the “ΔTM c-MycG52” value is “+2 ± 0.3 °C”. Besides, the “TM c-MycG27” value in the series on c-MycG27 (SEM) turned out to be 50 ± 1.0 °C. The “ΔTM c-MycG27” value with c-MycG27 (setting [4]) was −1 ± 0.5 °C. For the same molecule, the “effect on c-MycG27 thermal stability, in words” value in the series with c-MycG27 is listed as “neither stabilized nor destabilized”. Further, in the series on c-MycC27 (SEM), the “TM c-MycC27, first (lower) transition” value came to 27 ± 0.7 °C and the “TM c-MycC27, second (higher) transition” value was 79 ± 0.5 °C. In the series with c-MycC27 (setting [4]), the “ΔTM c-MycC27, first value (transition at lower temperature)” value was 0 ± 0.5; 0 ± 0.5 °C and the “ΔTM c-MycC27, second value (transition at higher temperature)” value is 0 ± 0.5; 0 ± 0.5 °C. The “effect on c-MycC27 thermal stability, in words” value in the series with c-MycC27 is reported as “neither stabilized nor destabilized”.

Take `CC(=O)N[C@H](C(=O)N[C@@H](CO)C(=O)N[C@@H](CCC(=O)O)C(=O)N[C@@H](C)C(=O)N[C@@H](Cc1c[nH]c2ccccc12)C(=O)N[C@@H](CCCCN)C(=O)N[C@@H](CCC(=O)O)C(=O)N[C@H](C(=O)N[C@@H](CCCCN)C(=O)NCC(=O)N[C@@H](Cc1ccccc1)C(=O)N[C@@H](Cc1ccccc1)C(N)=O)C(C)C)C(C)C` [Pep-VSE] (Ac-VSEAWKEVKGFF-NH2): in the series on c-MycC52 [1] (SEM), the “TM c-MycC52, first (lower) transition” value came to 33 ± 0.9 °C; the “TM c-MycC52, second (higher) transition” value is 74 ± 0.7 °C; the “ΔTM c-MycC52, second transition at higher temperatures” value is −14 ± 0.5 °C; the “ΔTM c-MycC52, transition at lower temperatures” value is −3 ± 0.2 °C. Moreover, in the series with c-MycG52, the “TM c-MycG52” value amounted to 48 ± 1.0 °C and the “ΔTM c-MycG52” value was “+4 ± 0.1 °C”. In the series with c-MycG27 (SEM), the “TM c-MycG27” value was 48 ± 1.0 °C. The “effect on c-MycG27 thermal stability, in words” value with c-MycG27 is “neither stabilized nor destabilized”. In addition, the “effect on imino resonances of c-MycC52 (NMR)” value in the series with c-MycC52 [2] is “no perturbations to imino resonances”. In the series on c-MycC27 (SEM), the “TM c-MycC27, first (lower) transition” value came to 26 ± 1.0 °C and the “TM c-MycC27, second (higher) transition” value came out at 80 ± 0.6 °C. For the same molecule, the “ΔTM c-MycC27, first value (transition at lower temperature)” value in the series with c-MycC27 (setting [4]) worked out at 0 ± 0.6 °C. For the same molecule, the “effect on c-MycC27 thermal stability, in words” value with c-MycC27 was “neither stabilized nor destabilized”. Moreover, the “solubility and aggregation state of the peptide (NMR)” value in series [3] is “soluble and not aggregated”.
